Measurements: patent publication US20230339968A1, “KRAS Gl2C INHIBITORS” (Eli Lilly and Company, priority 2019, published 2023)
Like-named read-outs stand apart in the source and are kept apart here.

What was measured:
H358 xenograft = experiment: Anti-tumor growth activity in lung cancer H358 xenograft mouse model; assay type: in vivo
Experimental: The purpose of this assay is to determine anti-tumor activities of test compounds (Example 34, 35, and 36) in a lung cancer H358 mouse xenograft model. H358 lung tumor cells (10×10^6) are implanted by subcutaneous injection in hind leg of nude female mice (Taconic Biosciences). A total of 4 mice in each group are used for the efficacy study. Treatment is initiated with oral administration (gavage) of the test compound or vehicle (20% Captisol®, 25 mM phosphate, pH 2.0 in 0.2 mL volume) once or twice daily for 28 days when the tumor size reaches approximately 300 mg. Tumor growth and body weight are monitored over time to evaluate efficacy and signs of toxicity. […] No significant animal body weight loss was observed through the whole study for these compounds.

SW1463 (colon) = experiment: CellTiterGlo Cell Proliferation Assay (2D), SW1463; assay type: cell-based; details: Homo sapiens, 96 hours
Experimental: (§1) The purpose of this assay is to evaluate the growth of KRas G12C mutant tumor lines following treatment with a test compound. A panel of tumor cell lines harboring KRas G12C or other KRas mutations are collected (Table 25). All cell lines are from ATCC or other sources indicated.
(§2) Typically cells are cultured in RPMI1640 or Dulbecco's modified Eagle's medium (DMEM, GIBCO) supplemented with 10% FBS (GIBCO, Invitrogen). […] The cells are treated with compound for 96 hours, and then are analyzed for viability using the CellTiterGlo® Luminescent Cell Viability Assay® (Promega #G7572 for 2D) according to manufacturer's instructions and an EnVision™ plate reader. Nonlinear regression and sigmoidal dose-response curves are used to calculate the half maximal inhibitory concentration (IC50) with GraphPad Prism 4® software.

MiaPaca-2 (pancr) = experiment: CellTiterGlo Cell Proliferation Assay (2D), MiaPaca-2; assay type: cell-based; details: Homo sapiens, MIA PaCa-2, 96 hours
Experimental: as §1, §2

H23 (lung) = experiment: CellTiterGlo Cell Proliferation Assay (2D), H23; assay type: cell-based; details: 96 hours
Experimental: as §1, §2

H1792 (lung) = experiment: CellTiterGlo Cell Proliferation Assay (2D), H1792; assay type: cell-based; details: Homo sapiens, NCI-H1792, 96 hours
Experimental: as §1, §2

pERK = experiment: In vivo pharmacodynamic effect, pERK Meso Scale Discovery ELISA of tumor lysates, lung cancer H358 xenograft model; set-up: species or system mouse; details: for inhibition at 30 mg/kg / inhibition at 12.5 mg/kg / inhibition at 25 mg/kg / inhibition at 50 mg/kg / inhibition at 100 mg/kg: Mus musculus; for inhibition at 30 mg/kg: read-out: % inhibition of pERK; for inhibition at 12.5 mg/kg / inhibition at 25 mg/kg / inhibition at 50 mg/kg / inhibition at 100 mg/kg: NCI-H358, po, read-out: % Inhibition of pERK
Experimental: The purpose of these assays is to evaluate in vivo target inhibition of an orally administered test compound. Human lung cancer H358 cells, or pancreatic cancer MiaPaca-2 cells, are implanted into nude mice xenograft tumor models. H358 or MiaPaca-2 cells (10×106 in a 1:1 Matrigel® mix, 0.2 mL total volume) are implanted by subcutaneous injection in hind leg of nude female mice (Harlan Laboratories). […] Treatment is initiated with oral administration (gavage) of a test compound or vehicle (20% Captisol®, 25 mM phosphate, pH 2.0 in 0.2 mL) when the tumor size reaches approximately 300 mg.
For in vivo target inhibition and PD analysis, tumors are ground by mortar and pestle on dry ice and tumor fragments are added to 800 μL of lysis buffer containing 1% Triton™ X-100, 25 mM Tris pH7.5, 150 mM sodium chloride, 1 mM EDTA, and 1 mM EGTA with Halt protease and phosphatase inhibitor cocktail (Thermo Scientific, cat. no. 1861281) in lysing matrix D tubes (MP Biomedical®, cat. no. 6913-500) with one additional large bead (MP Biomedical® ¼″ ceramic sphere bead cat. no. 6540-412) per tube. Tumor fragments are homogenized in a Thermo Bio101® fast prep (FP120) at setting 4 for […] while cold for a total of 2 times. Lysates are spun at 14,000 rpm for 10 minutes at 4° C. to clarify. Protein estimation is done on the lysate supernatant using a BioRad Dc® protein assay and lysates are diluted in complete lysis/binding buffer from the Ras GTPase Chemi ELISA Kit® (Active Motif, cat. no. 52097). The active KRas ELISA is performed as follows: glutathione-coated ELISA wells are incubated with diluted RAF1-GST in complete lysis/binding buffer for 1 hour at 4° C. with gentle agitation. Wells are washed 3 times with wash buffer and 100 μg of lysates are added to each well and incubated at ambient temperature for 1 hour with mild agitation. The wells are washed an additional 3 times, then primary antibody, diluted in antibody binding buffer, is added to each well. The plates are incubated for 1 hour. The wells are washed 3 more times before adding HRP-conjugated secondary antibody, diluted in antibody binding buffer, to each well. The plates are incubated at ambient temperature for 1 hour. ELISA wells are washed 4 times, chemiluminescent reagent is added and then luminescence is read. For pERK Meso Scale Discovery ELISA, 25 μg of protein containing 0.1% SDS is used; Meso Scale Discovery Whole Cell Lysate Kit for pERK is provided by Meso Scale Discovery.
The purpose of this assay is to evaluate the dose dependent in vivo target inhibition and pharmacodynamic effects in a lung cancer model. The test compound is dosed in lung cancer H358 mouse xenograft model at a dose range from 12.5 to 100 mg/kg. The tumor samples are collected 8 hours post a single dose. The tumor lysates are prepared and the inhibition of pERKand active KRas is measured as described above.
The purpose of this assay is to evaluate the time dependent in vivo target inhibition and pharmacodynamic effects in a lung cancer model. […] After a single dose, the tumor samples are harvested at 2, 4, 8, 12 and 24 hour post doing. The tumor lysates are prepared and the inhibition of pERK and active KRas is measured as described above.

SW1573 (lung) = experiment: CellTiterGlo Cell Proliferation Assay (2D), SW1573; assay type: cell-based; details: Homo sapiens, 96 hours
Experimental: as §1, §2

H2122 (lung) = experiment: CellTiterGlo Cell Proliferation Assay (2D), H2122; assay type: cell-based; details: Homo sapiens, NCI-H2122, 96 hours
Experimental: as §1, §2

UM-UC-3 (bladder) = experiment: CellTiterGlo Cell Proliferation Assay (2D), UM-UC-3; assay type: cell-based; details: Homo sapiens, UMUC3, 96 hours
Experimental: as §1, §2

H358 (lung) = experiment: CellTiterGlo Cell Proliferation Assay (2D), H358; assay type: cell-based; details: Homo sapiens, NCI-H358, 96 hours
Experimental: as §1, §2

LU99 (lung) = experiment: CellTiterGlo Cell Proliferation Assay (2D), LU99; assay type: cell-based; details: Homo sapiens, Lu-99, 96 hours
Experimental: as §1, §2

LXFA-983L (lung) = experiment: CellTiterGlo Cell Proliferation Assay (2D), LXFA-983L; assay type: cell-based; details: 96 hours
Experimental: as §1, §2

IC50 (SW1463 (colon))	IC50 (MiaPaca-2 (pancr))	IC50 (H1792 (lung))	IC50 (SW1573 (lung))	IC50 (H2122 (lung))	IC50 (H358 (lung))	Compound	inhibition at 10 µM (SW1463 (colon))	inhibition at 10 µM (MiaPaca-2 (pancr))	IC50 (H23 (lung))	inhibition at 10 µM (H23 (lung))	inhibition at 10 µM (H1792 (lung))	inhibition at 10 µM (SW1573 (lung))	inhibition at 10 µM (H2122 (lung))	IC50 (UM-UC-3 (bladder))	inhibition at 10 µM (UM-UC-3 (bladder))	inhibition at 10 µM (H358 (lung))	IC50 (LU99 (lung))	inhibition at 10 µM (LU99 (lung))	IC50 (LXFA-983L (lung))	inhibition at 10 µM (LXFA-983L (lung))	further results
6 nM	18 nM	3010 nM	> 10000 nM	1170 nM	4 nM	C=CC(=O)N1CCN2C(=O)c3cc(Cl)c(-c4ccc(F)c5sc(N)nc45)c(Cl)c3OCC[C@H]2C1 (atropisomer, axis not shown) [Example 1, (13aS)-9-(2-Amino-7-fluoro-1,3-benzothiazol-4-yl)-8,10-dichloro-2-prop-2-enoyl-1,3,4,12,13,13a-hexahydropyrazino[2,1-d][1,5]benzoxazocin-6-one]	95.3%	77.2%	45 nM	98.2%	63.6%	35%	80.4%	730 nM	54.3%	94.5%	303 nM	89.9%	3610 nM	78.6%	–
14 nM	81 nM	2030 nM	9350 nM	1360 nM	8 nM	C=CC(=O)N1CCN2C(=O)c3cc(F)c(-c4ccc(F)c5sc(N)c(C#N)c45)c(Cl)c3OC[C@H]2C1 [Example 36, 4-[(4aR)-7-Chloro-9-fluoro-11-oxo-3-prop-2-enoyl-2,4,4a,5-tetrahydro-1H-pyrazino[2,1-c][1,4]benzoxazepine-8-yl]-2-amino-7-fluoro-benzothiophene-3-carbonitrile]	82.7%	79.6%	100 nM	96.7%	97.4%	54.3%	92.8%	1860 nM	91.6%	89.1%	349 nM	99.1%	> 10000 nM	88%	% Regression (Day 12) (H358 xenograft; 30 mg/kg PO, BID): −68.96%; % inhibition of pERK (pERK; H358 model, single dose 30 mg/kg, 8 h, 30 mg/kg): 86.9%; inhibition at 30 mg/kg (pERK; NCI-H358, 2 h, H358 model, single dose 30 mg/kg, 2 h): 79.7%; inhibition at 30 mg/kg (pERK; NCI-H358, 4 h, H358 model, single dose 30 mg/kg, 4 h): 84.2%; inhibition at 30 mg/kg (pERK; NCI-H358, 8 h, H358 model, single dose 30 mg/kg, 8 h): 82.6%; inhibition at 30 mg/kg (pERK; NCI-H358, 24 h, H358 model, single dose 30 mg/kg, 24 h): 48.8%
4 nM	10 nM	4350 nM	7820 nM	660 nM	2 nM	C=CC(=O)N1CCN2C(=O)c3cc(F)c(-c4cccc5sc(N)c(C#N)c45)c(Cl)c3OCC[C@H]2C1 [Example 34, 4-[(13aS)-10-Chloro-8-fluoro-6-oxo-2-prop-2-enoyl-1,3,4,12,13,13a-hexahydropyrazino[2,1-d][1,5]benzoxazocin-9-yl]-2-amino-benzothiophene-3-carbonitrile]	90.1%	82.9%	26 nM	96.8%	56.7%	60.8%	78.1%	510 nM	56.1%	95.6%	201 nM	91.9%	> 10000 nM	68.8%	% Regression (Day 12) (H358 xenograft; 100 mg/kg PO, QD): −30.96%; % Regression (Day 26) (H358 xenograft; 100 mg/kg PO, QD): −6.28%; inhibition at 12.5 mg/kg (pERK; 8 h, H358 xenograft mice, single oral dose 12.5 mg/kg, 8 hours): 26.9%; inhibition at 25 mg/kg (pERK; 8 h, H358 xenograft mice, single oral dose 25 mg/kg, 8 hours): 53.2%; inhibition at 50 mg/kg (pERK; 8 h, H358 xenograft mice, single oral dose 50 mg/kg, 8 hours): 54%; inhibition at 100 mg/kg (pERK; 8 h, H358 xenograft mice, single oral dose 100 mg/kg, 8 hours): 74.8%

Compound	IC50 (SW1463 (colon))	IC50 (MiaPaca-2 (pancr))	IC50 (H1792 (lung))	IC50 (SW1573 (lung))	IC50 (H2122 (lung))	IC50 (H358 (lung))	inhibition at 10 µM (SW1463 (colon))	inhibition at 10 µM (MiaPaca-2 (pancr))	IC50 (H23 (lung))	inhibition at 10 µM (H23 (lung))	inhibition at 10 µM (H1792 (lung))	inhibition at 10 µM (SW1573 (lung))	inhibition at 10 µM (H2122 (lung))	IC50 (UM-UC-3 (bladder))	inhibition at 10 µM (UM-UC-3 (bladder))	inhibition at 10 µM (H358 (lung))	IC50 (LU99 (lung))	inhibition at 10 µM (LU99 (lung))	IC50 (LXFA-983L (lung))	inhibition at 10 µM (LXFA-983L (lung))	further results
C=CC(=O)N1CCN2C(=O)c3cc(F)c(-c4ccc(F)c5sc(N)c(C#N)c45)c(Cl)c3OCC[C@H]2C1 [Example 35, 4-[(13aS)-10-Chloro-8-fluoro-6-oxo-2-prop-2-enoyl-1,3,4,12,13,13a-hexahydropyrazino[2,1-d][1,5]benzoxazocin-9-yl]-2-amino-7-fluoro-benzothiophene-3-carbonitrile]	5 nM	11 nM	1410 nM	> 10000 nM	900 nM	2 nM	94.3%	85.8%	24 nM	98%	81.7%	44.7%	79.7%	1090 nM	80.4%	96.4%	173 nM	96.6%	> 10000 nM	83.1%	% Regression (Day 12) (H358 xenograft; 30 mg/kg PO, BID): −72.14%; % Regression (Day 26) (H358 xenograft; 30 mg/kg PO, BID): −67.68%; inhibition at 30 mg/kg (pERK; NCI-H358, 2 h): 67.9%; inhibition at 30 mg/kg (pERK; NCI-H358, 4 h): 73.2%; inhibition at 30 mg/kg (pERK; NCI-H358, 8 h): 82.6%; inhibition at 30 mg/kg (pERK; NCI-H358, 12 h): 71.1%; inhibition at 30 mg/kg (pERK; NCI-H358, 24 h): 65.2%; inhibition at 12.5 mg/kg (pERK; 8 h): 82.2%; inhibition at 25 mg/kg (pERK; 8 h): 85.3%; inhibition at 50 mg/kg (pERK; 8 h): 90.6%; inhibition at 100 mg/kg (pERK; 8 h): 88.9%
